In patent US20230083973A1, “SUBSTITUTED CYCLOPROPYL-2,2'-BIP[…], ANALOGUES THEREOF, AND METHODS USING SAME” (priority 2019, published 2023) one finds EC50 data, which are given here for 26 compounds.

Read-outs that look alike come from different tables or passages of the source.

This test relates to HBsAg. The test can be described thus: HBsAg assay: inhibition of HBsAg in HepG2.2.15 cells (chemiluminescence immunoassay of supernatant). It is filed as cell-based, hepatitis B virus. Conditions: HBsAg in supernatant at day 6 after exposure to compound, 0.5% DMSO. Here is the method:
Inhibition of HBsAg was determined in HepG2.2.15 cells. Cells were maintained in culture medium containing 10% fetal calf serum, […], Glutamine, penicillin/streptomycin. Cells were seeded in 96-well collagen-coated plate at a density of 30,000 cells/well. Serially diluted compounds were added to cells next day at the final DMSO concentration of 0.5%. Cells were incubated with compounds for 2-3 days, after which medium was removed. Fresh medium containing compounds was added to cells for additional 3-4 days. At day 6 after exposure of compounds, supernatant was collected, the HBsAg immunoassay (microplate-based chemiluminescence immunoassay kits, CLIA, Autobio Diagnosics Co., Zhengzhou, China, Catalog # CL0310-2) was used to determine the level of HBsAg according to manufactory instruction. Dose-response curves were generated and the EC50 value (effective concentrations that achieved 50% inhibitory effect) were determined using XLfit software. In addition, cells were seeded at a density of 5,000 cells/well for determination of cell viability in the presence and absence of compounds by using CellTiter-Glo reagent (Promega).
Table 1 illustrates EC50 values obtained by the HBsAg assay for selected compounds.

[1] abbreviates: read-out: sAg EC50, HepG2.2.15 cells.
[2] abbreviates: Hepatitis B virus, HepG2.2.15, 144 h, read-out: sAg EC50, HepG2.2.15 cells.

For orientation: EC50 means the concentration giving half of the maximal effect. `Clc1ccc(C2CC2c2cnc(-c3ncccn3)nc2)cc1N1CCCC1` (single isomer, unassigned) [Example 199, trans-5-(2-(4-Chloro-3-(pyrrolidin-1-yl)phenyl)cyclopropyl)-2,2′-bipyrimidine]: under setting [1], the EC50 worked out at 0.14 µM.
On to `COCCCOc1cc(F)c(Cl)cc1C1CC1c1cnc(-c2ncccn2)nc1` (single isomer, unassigned) [Example 154, trans-5-(2-(5-Chloro-4-fluoro-2-(3-methoxypropoxy)phenyl)cyclopropyl)-2,2′-bipyrimidine], for which the EC50 under setting [1] was 0.3 µM.
The same measure, in the same setting: the same measure for `Fc1cc(C2CC2c2cnc(-c3ncccn3)nc2)cc(OCC2CC2)c1F` (single isomer, unassigned) [Example 129, trans-5-(2-(3-(Cyclopropylmethoxy)-4,5-difluorophenyl)cyclopropyl)-2,2′-bipyrimidine]: 0.018 µM.
For `COCCCn1cnc2c(F)cc([C@@H]3C[C@H]3c3cnc(-c4ncccn4)nc3)cc21` (relative stereo) [Example 274, trans-6-(2-([2,2′-Bipyrimidin]-5-yl)cyclopropyl)-4-fluoro-1-(3-methoxypropyl)-1H-benzo[d]imidazole], the EC50 under setting [2] was 0.064 µM.
Consider `Fc1ccc(C2CC2c2cnc(-c3ncccn3)nc2)cc1N1CCC1` (single isomer, unassigned) [Example 83, trans-5-(2-(3-(Azetidin-1-yl)-4-fluorophenyl)cyclopropyl)-2,2′-bipyrimidine], for which, under setting [1], the EC50 amounted to 0.035 µM.
On the same count and under the same terms, with `Fc1cc(C2CC2c2cnc(-c3ncccn3)nc2)cc(F)c1F` (single isomer, unassigned) [Example 162, trans-5-(2-(3,4,5-Trifluorophenyl)cyclopropyl)-2,2′-bipyrimidine] the figure was 0.16 µM; with `COCCOc1cc(C2CC2c2cnc(-c3ncccn3)nc2)cc(F)c1F` (single isomer, unassigned) [Example 134, trans-5-(2-(3,4-Difluoro-5-(2-methoxyethoxy)phenyl)cyclopropyl)-2,2′-bipyrimidine], 0.3 µM.
In the case of `COc1cc(C2CC2c2cnc(-c3ncccn3)nc2)cc(F)c1Cl` (single isomer, unassigned) [Example 45, trans-5-(2-(4-Chloro-3-fluoro-5-methoxyphenyl)cyclopropyl)-2,2′-bipyrimidine], under setting [1], the concentration for a half-maximal effect (EC50) was found to be 0.27 µM.
The same measure, in the same setting: the same measure for `COC1CN(c2cc(C3CC3c3cnc(-c4ncccn4)nc3)ccc2F)C1` (single isomer, unassigned) [Example 47, trans-5-(2-(4-Fluoro-3-(3-methoxyazetidin-1-yl)phenyl)cyclopropyl)-2,2′-bipyrimidine]: 0.37 µM; for `CO[C@H]1CCN(c2cc(C3CC3c3cnc(-c4ncccn4)nc3)cc(Cl)c2F)C1` (single isomer, unassigned) [Example 117]: 0.011 µM; for `O[C@@H]1CCN(c2cc(C3CC3c3cnc(-c4ncccn4)nc3)ccc2F)C1` (single isomer, unassigned) [Example 70]: 0.27 µM.
On the same count and under the same terms, the same measure for `Fc1cc(C2CC2c2cnc(-c3ncccn3)nc2)cc(OC2CCCC2)c1F` (single isomer, unassigned) [Example 246, trans-5-(2-(3-(Cyclopentyloxy)-4,5-difluorophenyl)cyclopropyl)-2,2′-bipyrimidine]: 0.15 µM; for `Fc1cc(C2CC2c2cnc(-c3ncccn3)nc2)cc(N2CC3(CCOCC3)C2)c1F` (single isomer, unassigned) [Example 136, trans-2-(5-(2-([2,2′-Bipyrimidin]-5-yl)cyclopropyl)-2,3-difluorophenyl)-7-oxa-2-azaspiro[3.5]nonane]: 0.92 µM.
As for `COCCCn1ncc2c([C@@H]3C[C@H]3c3cnc(-c4ncccn4)nc3)ccc(F)c21` (relative stereo) [Example 276, trans-4-(2-([2,2′-Bipyrimidin]-5-yl)cyclopropyl)-7-fluoro-1-(3-methoxypropyl)-1H-indazole], under setting [2], the EC50 is 0.01 µM.
In the case of `COc1cc(C2CN(c3cc([C@@H]4C[C@H]4c4cnc(-c5ncccn5)nc4)cc(F)c3F)C2)cc(F)c1F` (relative stereo) [Example 213, trans-5-(2-(3-(3-(3,4-Difluoro-5-methoxyphenyl)azetidin-1-yl)-4,5-difluorophenyl)cyclopropyl)-2,2′-bipyrimidine], the EC50 under setting [2] turned out to be 0.073 µM.
Still for that read-out and setting: the same measure for `Fc1cc([C@@H]2C[C@H]2c2cnc(-c3ncccn3)nc2)cc(OCc2nccs2)c1F` (relative stereo) [Example 218, trans-2-((5-(2-([2,2′-Bipyrimidin]-5-yl)cyclopropyl)-2,3-difluorophenoxy)methyl)thiazole]: 0.057 µM.
As for `CC1(C)CN(c2cc(C3CC3c3cnc(-c4ncccn4)nc3)cc(F)c2F)C1` (single isomer, unassigned) [Example 139, trans-5-(2-(3-(3,3-Dimethylazetidin-1-yl)-4,5-difluorophenyl)cyclopropyl)-2,2′-bipyrimidine], the EC50 under setting [1] was found to be 0.088 µM.
The same measure, in the same setting: the same measure for `CO[C@H]1CCN(c2cc(C3CC3c3cnc(-c4ncccn4)nc3)cc(F)c2F)C1` (single isomer, unassigned) [Example 102]: 0.029 µM; for `COc1cc(C2CC2c2cnc(-c3ncccn3)nc2OC)ccc1F` (single isomer, unassigned) [Example 80, trans-5-(2-(4-Fluoro-3-methoxyphenyl)cyclopropyl)-4-methoxy-2,2′-bipyrimidine]: 0.1 µM; for `CCc1nc(-c2ncccn2)ncc1C1CC1c1ccc(F)c(OC)c1` (single isomer, unassigned) [Example 77, trans-4-Ethyl-5-(2-(4-fluoro-3-methoxyphenyl)cyclopropyl)-2,2′-bipyrimidine]: 5 µM.
Take `COc1cc(C2CC2c2cnc(-c3ncccn3)nc2)cc(Cl)c1F` (single isomer, unassigned) [Example 149, trans-5-(2-(3-Chloro-4-fluoro-5-methoxyphenyl)cyclopropyl)-2,2′-bipyrimidine]: the EC50 under setting [1] was determined as 0.062 µM.
Same read-out and setting: with `COc1cc(C2CC2c2cnc(-c3ncccn3)nc2)cc(C)c1F` (single isomer, unassigned) [Example 151, trans-5-(2-(4-Fluoro-3-methoxy-5-methylphenyl)cyclopropyl)-2,2′-bipyrimidine] the figure was 0.081 µM.
The same measure, in the same setting: the same measure for `COCCOc1cc(F)c(Cl)cc1C1CC1c1cnc(-c2ncccn2)nc1` (single isomer, unassigned) [Example 157, trans-5-(2-(5-Chloro-4-fluoro-2-(2-methoxyethoxy)phenyl)cyclopropyl)-2,2′-bipyrimidine]: 49 µM.
With `COc1c(Cl)ccc(C2CC2c2cnc(-c3ncccn3)nc2)c1Cl` (single isomer, unassigned) [Example 132, trans-5-(2-(2,4-Dichloro-3-methoxyphenyl)cyclopropyl)-2,2′-bipyrimidine], the EC50 under setting [2] was 0.12 µM.
As for `Fc1ccc([C@@H]2C[C@H]2c2cnc(-c3ncccn3)nc2)c2cccnc12` (relative stereo) [Example 172, trans-5-(2-([2,2′-Bipyrimidin]-5-yl)cyclopropyl)-8-fluoroquinoline], under setting [2], the EC50 amounted to 0.25 µM.
Take `O[C@@H]1CCN(c2cc(C3CC3c3cnc(-c4ncccn4)nc3)cc(Cl)c2F)C1` (single isomer, unassigned) [Example 127]: the EC50 under setting [1] was found to be 0.11 µM.
